Source: patent US9988400B2 (Genentech, Inc., priority 2013, dated 2018)

Target: T1, HEK cells stably transfected with tetracycline inducible hNR1 and hNR2A (Homo sapiens, UniProt Q05586+Q12879)
T1 construct: expressed in transfected cells; host or cells: HEK cells, stably transfected, tetracycline/doxycycline inducible
Assay: Assay 1: Cell-Based Assay, cytosolic calcium response to positive allosteric modulators (with 30 μM glycine and 300 nM L-glutamate, EC30)
Details: Table 2; for EC50: cytosolic calcium response, with 30 μM glycine and 300 nM L-glutamate (EC30), — = no plateau was reached; for Max %: responses scaled relative to 100 μM L-glutamate maximal response (100%) and 0 μM L-glutamate (0%)
Method: Assay 1: Cell-Based Assay
HEK cells stably transfected with tetracycline inducible hNR1 and hNR2A were seeded into clear bottom 384 well poly-D-lysine coated plates (2.5×10^4 cells per well) in Minimum Essential Media (MEM; without L-) including 7.5 μg mL^−1 doxycycline and 500 μM (+)-ketamine. The cells were incubated at 37° C. in 5% CO2 for 24 h. For measurement of changes in cytosolic calcium, the seeding media was removed and the cells incubated at 37° C. for 60 min with 1× Becton Dickinson Calcium Assay Kit reagent in Hanks Balanced Salt Solution (HBSS; w/o magnesium, including 1.8 mM calcium, 0.65 mg ml^−1 probenecid and 10 μM (+)-ketamine, pH 7.15) then allowed to equilibrate to rt for 30 min. Concentration-effect curves to Positive Allosteric Modulators (PAMs) were constructed by adding different concentrations (with 30 μM glycine and 300 nM L-glutamate (EC30)) to different wells in HBSS. Compounds were added after a 10 second baseline read and maximum level of relative fluorescence units (RFU) was measured over a 5 min period. Responses were scaled relative to 100 μM L-glutamate maximal response (100%) and 0 μM L-glutamate (0%). EC50 values are provided for compounds reaching maximal response plateaus, and the max % (EC50 (- -)) only if no plateau was reached.
A four-parameter Hill equation was fitted to individual concentration-effect curves:
[formula] in which Y, S0, Sinf, AC50, n and c were effect, lower-asymptote, upper-asymptote, mid-point location, slope parameter, and concentration respectively.

T1 sequence (Q12879 23-1464, other chains not shown): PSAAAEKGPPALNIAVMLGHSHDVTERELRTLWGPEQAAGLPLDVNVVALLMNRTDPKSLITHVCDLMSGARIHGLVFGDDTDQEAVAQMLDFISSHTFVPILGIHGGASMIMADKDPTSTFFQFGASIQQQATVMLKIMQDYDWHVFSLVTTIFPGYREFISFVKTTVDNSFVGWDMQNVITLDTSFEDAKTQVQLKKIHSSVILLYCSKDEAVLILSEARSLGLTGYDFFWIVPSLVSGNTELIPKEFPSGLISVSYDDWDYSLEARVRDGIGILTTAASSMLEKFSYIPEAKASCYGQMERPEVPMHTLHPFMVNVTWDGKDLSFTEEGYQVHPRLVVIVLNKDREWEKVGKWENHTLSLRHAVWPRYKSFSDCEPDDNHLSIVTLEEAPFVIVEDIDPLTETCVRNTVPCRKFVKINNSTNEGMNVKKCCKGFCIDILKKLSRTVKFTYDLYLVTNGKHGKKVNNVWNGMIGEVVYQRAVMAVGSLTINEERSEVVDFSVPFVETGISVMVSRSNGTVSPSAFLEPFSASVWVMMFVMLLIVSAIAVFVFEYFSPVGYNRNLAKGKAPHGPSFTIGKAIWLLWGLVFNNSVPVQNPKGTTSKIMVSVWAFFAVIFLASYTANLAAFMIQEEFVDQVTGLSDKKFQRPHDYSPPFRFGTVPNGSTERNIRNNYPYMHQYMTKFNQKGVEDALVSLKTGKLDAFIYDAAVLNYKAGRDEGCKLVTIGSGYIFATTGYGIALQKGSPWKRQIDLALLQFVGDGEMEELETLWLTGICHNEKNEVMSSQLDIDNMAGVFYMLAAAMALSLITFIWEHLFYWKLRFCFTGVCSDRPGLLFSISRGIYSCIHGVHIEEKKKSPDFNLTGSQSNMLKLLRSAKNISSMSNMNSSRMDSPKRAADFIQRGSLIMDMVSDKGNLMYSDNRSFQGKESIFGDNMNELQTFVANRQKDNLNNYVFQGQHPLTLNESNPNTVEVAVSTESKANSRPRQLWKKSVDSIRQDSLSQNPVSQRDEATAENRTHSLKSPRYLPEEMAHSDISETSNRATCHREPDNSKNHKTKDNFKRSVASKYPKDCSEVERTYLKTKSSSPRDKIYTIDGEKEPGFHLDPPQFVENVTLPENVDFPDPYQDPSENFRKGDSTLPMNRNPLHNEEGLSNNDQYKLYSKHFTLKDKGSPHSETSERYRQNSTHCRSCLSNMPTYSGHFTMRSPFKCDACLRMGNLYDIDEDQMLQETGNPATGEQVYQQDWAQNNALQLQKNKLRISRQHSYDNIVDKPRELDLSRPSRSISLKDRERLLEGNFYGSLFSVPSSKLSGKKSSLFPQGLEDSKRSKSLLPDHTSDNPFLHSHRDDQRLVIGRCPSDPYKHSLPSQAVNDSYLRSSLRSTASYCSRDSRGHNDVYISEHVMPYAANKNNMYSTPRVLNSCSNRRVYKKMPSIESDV

Compound	EC50	Max %
Cc1sc2nc(COc3ccc(F)cc3)cc(=O)n2c1C1CC1C#N (racemic) [Example 4.18, cis-2-[7-(4-Fluorophenoxymethyl)-2-methyl-5-oxo-5H-[1,3]thiazolo[3,2-a]pyrimidin-3-yl]cyclopropane-1-carbonitrile]	5 µM	102%
Cc1sc2nc(COc3ccc(F)cc3F)cc(=O)n2c1[C@@H]1C[C@H]1CO (relative stereo) [Example 4.6, 7-(2,4-Difluorophenoxymethyl)-3-[trans-2-(hydroxymethyl)cyclopropyl]-2-methyl-5H-[1,3]thiazolo[3,2-a]pyrimidin-5-one]	7.7 µM	128%
Cc1sc2nc(COc3ccc(F)c(F)c3)cc(=O)n2c1[C@@H]1C[C@H]1CO (relative stereo) [Example 4.7, 7-(3,4-Difluorophenoxymethyl)-3-[trans-2-(hydroxymethyl)cyclopropyl]-2-methyl-5H-[1,3]thiazolo[3,2-a]pyrimidin-5-one]	5.8 µM	134%
Cc1sc2nc(COc3ccc(Cl)cc3)cc(=O)n2c1[C@@H]1C[C@H]1CO (relative stereo) [Example 4.8, 7-(4-Chlorophenoxymethyl)-3-[trans-2-(hydroxymethyl)cyclopropyl]-2-methyl-5H-[1,3]thiazolo[3,2-a]pyrimidin-5-one]	4.4 µM	99.3%
Cc1sc2nc(COc3ccc(F)cn3)cc(=O)n2c1[C@@H]1C[C@H]1CO (relative stereo) [Example 4.9, 7-[[(5-Fluoropyridin-2-yl)oxy]methyl]-3-[trans-2-(hydroxymethyl)cyclopropyl]-2-methyl-5H-[1,3]thiazolo[3,2-a]pyrimidin-5-one]	4.4 µM	123%
Cc1sc2nc(COc3ccc(C(F)(F)F)cc3)cc(=O)n2c1[C@@H]1C[C@H]1CO (relative stereo) [Example 4.10, 3-(trans-2-(hydroxymethyl)cyclopropyl)-2-methyl-7-((4-(trifluoromethyl)phenoxy)methyl)-5H-thiazolo[3,2-a] pyrimidin-5-one]	4.3 µM	108%
Cc1sc2nc(COc3ccccc3F)cc(=O)n2c1[C@@H]1C[C@H]1CO (relative stereo) [Example 4.12, 7-((2-fluorophenoxy)methyl)-3-(trans-2-(hydroxymethyl)cyclopropyl)-2-methyl-5H-thiazolo[3,2-a]pyrimidin-5-one]	30.6 µM	127%
Cc1sc2nc(COc3ccc(C#N)cc3)cc(=O)n2c1[C@@H]1C[C@H]1CO (relative stereo) [Example 4.13, 4-((3-(trans-2-(hydroxymethyl)cyclopropyl)-2-methyl-5-oxo-5H-thiazolo[3,2-a]pyrimidin-7-yl)methoxy)benzonitrile]	31.1 µM	72.8%
O=c1cc(COc2ccc(F)cc2)nc2scc([C@@H]3C[C@H]3CO)n12 (relative stereo) [Example 4.14, 7-((4-fluorophenoxy)methyl)-3-(trans-2-(hydroxymethyl)cyclopropyl)-5H-thiazolo[3,2-a]pyrimidin-5-one]	7.8 µM	93%
Cc1sc2nc(COc3ccc(F)cc3)cc(=O)n2c1[C@@H]1C[C@@H]1CO (relative stereo) [Example 4.23, 7-(4-Fluorophenoxymethyl)-3-[cis-2-(hydroxymethyl)cyclopropyl]-2-methyl-5H-[1,3]thiazolo[3,2-a]pyrimidin-5-one]	26.5 µM	62.9%
Cc1sc2nc(COc3ccc(F)cc3)cc(=O)n2c1[C@@H]1C[C@H]1CC#N (relative stereo) [Example 4.26, trans-2-[2-[7-(4-Fluorophenoxymethyl)-2-methyl-5-oxo-5H-[1,3]thiazolo[3,2-a]pyrimidin-3-yl]cyclopropyl]acetonitrile]		98.8%
Cc1sc2nc(COc3ccc(F)cc3)c(F)c(=O)n2c1[C@@H]1C[C@H]1CO (relative stereo) [Example 4.29, 6-fluoro-7-((4-fluorophenoxy)methyl)-3-(trans-2-(hydroxymethyl)cyclopropyl)-2-methyl-5H-thiazolo[3,2-a]pyrimidin-5-one]	17.5 µM	134%

Continued, values first:

EC50	Max %	Compound
2.5 µM	138%	Cc1sc2nc(COc3cccc(F)c3)cc(=O)n2c1[C@@H]1C[C@H]1CO (relative stereo) [Example 4.4, 7-((3-fluorophenoxy)methyl)-3-(trans-2-(hydroxymethyl)cyclopropyl)-2-methyl-5H-thiazolo[3,2-a]pyrimidin-5-one]
2.1 µM	80%	Cc1sc2nc(COc3ccc(F)cc3)cc(=O)n2c1[C@@H]1C[C@H]1C(F)(F)F (relative stereo) [Example 4.24, trans-7-(4-Fluorophenoxymethyl)-2-methyl-3-[2-(trifluoromethyl)cyclopropyl]-5H-[1,3]thiazolo[3,2-a]pyrimidin-5-one]
0.867 µM	160%	CCN(Cc1cc(=O)n2c([C@@H]3C[C@H]3CO)c(C)sc2n1)c1ccccn1 (relative stereo) [Example 5.7, 7-((ethyl(pyridine-2-yl)amino)methyl)-3-(trans-2-(hydroxymethyl)cyclopropyl)-2-methyl-5H-thiazolo[3,2-a] pyrimidin-5-one]
0.108 µM	176%	CCN(Cc1cc(=O)n2c([C@@H]3C[C@H]3CO)c(C)sc2n1)c1ccc(F)cc1 (relative stereo) [Example 5.17, 7-((ethyl(4-fluorophenyl)amino)methyl)-3-(trans-2-(hydroxymethyl)cyclopropyl)-2-methyl-5H-thiazolo[3,2-a] pyrimidin-5-one]
0.0952 µM	176%	CCN(Cc1cc(=O)n2c([C@@H]3C[C@H]3CO)csc2n1)c1ccc(F)cc1 (relative stereo) [Example 5.28, 7-[(N-ethyl-4-fluoro-anilino)methyl]-3-[trans-2-(hydroxymethyl)cyclopropyl)thiazolo[3,2-a]pyrimidin-5-one]
0.952 µM	167%	CCN(Cc1cc(=O)n2c([C@@H]3C[C@H]3CF)c(C)sc2n1)c1ccc(F)cc1 (relative stereo) [Example 5.39, 7-((ethyl(4-fluorophenyl)amino)methyl)-3-(trans-2-(fluoromethyl)cyclopropyl)-2-methyl-5H-thiazolo[3,2-a]pyrimidin-5-one]
1 µM	167%	Cc1sc2nc(Cn3nc(C(F)(F)F)cc3C(F)(F)F)cc(=O)n2c1[C@@H]1C[C@H]1CO (relative stereo) [Example 15.2, 7-((3,5-bis(trifluoromethyl)-1H-pyrazol-1-yl)methyl)-3-(trans-2-(hydroxymethyl)cyclopropyl)-2-methyl-5H-thiazolo[3,2-a]pyrimidin-5-one]
0.489 µM	144%	Cc1sc2nc(Cn3nc(Cl)cc3C)cc(=O)n2c1[C@@H]1C[C@H]1CO (relative stereo) [Example 15.3, 7-((3-chloro-5-methyl-1H-pyrazol-1-yl)methyl)-3-(trans-2-(hydroxymethyl)cyclopropyl)-2-methyl-5H-thiazolo[3,2-a]pyrimidin-5-one]
